Assay results: patent US20100003246A1, “Novel heterocyclic compounds and uses therof” (priority 2008, published 2010)

Target: T1, b-Raf(V600E) (Homo sapiens, UniProt P15056, V600E)
T1 construct: made in house
Experiment: Raf/Mek Amplified Luminescence Proximity Homogeneous Assay (Alpha Screen), b-Raf(V600E)
Type: biochemical
Details: mutant b-Raf(V600E), read-out: mut-b-RAF (IC50 in uM)
Method in brief: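 Active b-Raf(V600E) (~4 pM) pre-incubated 60 min at room temperature with compound and kinase-dead biotinylated Mek (~10 nM) in Tris pH 7.5, MgCl2, BSA, DTT; ATP-started reaction ran 3 h, EDTA-stopped. Phospho-MEK detected by anti-p-MEK AlphaScreen luminescence; IC50 by non-linear regression.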

T1 sequence (P15056 whole entry V600E): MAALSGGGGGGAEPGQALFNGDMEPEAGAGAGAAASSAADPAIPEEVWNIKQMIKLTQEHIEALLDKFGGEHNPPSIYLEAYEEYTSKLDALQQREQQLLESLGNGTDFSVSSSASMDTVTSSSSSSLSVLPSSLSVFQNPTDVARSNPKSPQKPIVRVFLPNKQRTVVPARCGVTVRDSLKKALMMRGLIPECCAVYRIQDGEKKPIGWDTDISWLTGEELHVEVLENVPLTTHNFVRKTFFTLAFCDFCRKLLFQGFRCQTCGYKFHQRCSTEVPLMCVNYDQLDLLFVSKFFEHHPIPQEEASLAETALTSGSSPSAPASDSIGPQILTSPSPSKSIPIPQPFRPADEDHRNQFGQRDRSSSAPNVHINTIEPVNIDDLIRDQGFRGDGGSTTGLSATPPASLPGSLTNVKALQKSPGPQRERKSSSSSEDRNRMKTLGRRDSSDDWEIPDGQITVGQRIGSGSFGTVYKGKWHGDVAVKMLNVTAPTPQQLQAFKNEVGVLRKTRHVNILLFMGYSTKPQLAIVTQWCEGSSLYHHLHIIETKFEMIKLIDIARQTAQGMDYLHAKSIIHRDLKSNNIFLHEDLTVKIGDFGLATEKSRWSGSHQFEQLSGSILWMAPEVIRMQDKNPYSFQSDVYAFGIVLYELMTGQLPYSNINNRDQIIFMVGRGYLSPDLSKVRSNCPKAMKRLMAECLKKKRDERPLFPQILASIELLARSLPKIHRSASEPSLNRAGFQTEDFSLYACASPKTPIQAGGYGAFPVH

Row | Structure (SMILES) | IC50
1 | COc1cc(-c2nc(-c3ccc(F)cc3)[nH]c2-c2ccnc(NC[C@H](C)NS(C)(=O)=O)n2)cnc1N [Compound 195, (S)-N-(1-(4-(4-(6-amino-5-methoxypyridin-3-yl)-2-(4-fluorophenyl)-1H-imidazol-5-yl)pyrimidin-2-ylamino)propan-2-yl)methanesulfonamide] | 0.0001 µM
2 | COc1cc(-c2nc(-c3ccc(F)cc3)[nH]c2-c2ccnc(NC[C@H](C)NC(=O)[C@@H](C)OC)n2)cnc1N [Compound 196, (R)-N-((S)-1-(4-(4-(6-amino-5-methoxypyridin-3-yl)-2-(4-fluorophenyl)-1H-imidazol-5-yl)pyrimidin-2-ylamino)propan-2-yl)-2-methoxypropanamide] | 0.0002 µM
3 | COc1cc(-c2nc(-c3ccc(F)cc3)[nH]c2-c2ccnc(NC[C@H](C)NC(=O)[C@H](C)OC)n2)cnc1N [Compound 197, (S)-N-((S)-1-(4-(4-(6-amino-5-methoxypyridin-3-yl)-2-(4-fluorophenyl)-1H-imidazol-5-yl)pyrimidin-2-ylamino)propan-2-yl)-2-methoxypropanamide] | 0.0001 µM
4 | COc1cc(-c2[nH]c(-c3ccc(F)cc3)nc2-c2ccnc(N[C@@H]3CCN(S(C)(=O)=O)C3)n2)cnc1N [Compound 199, (R)-4-(5-(6-amino-5-methoxypyridin-3-yl)-2-(4-fluorophenyl)-1H-imidazol-4-yl)-N-(1-(methylsulfonyl)pyrrolidin-3-yl)pyrimidin-2-amine] | 0.015 µM
5 | COc1cc(-c2[nH]c(-c3ccc(F)cc3)nc2-c2ccnc(N[C@H]3CCN(S(C)(=O)=O)C3)n2)cnc1N [Compound 200, (S)-4-(5-(6-amino-5-methoxypyridin-3-yl)-2-(4-fluorophenyl)-1H-imidazol-4-yl)-N-(1-(methylsulfonyl)pyrrolidin-3-yl)pyrimidin-2-amine] | 0.004 µM
6 | COc1cc(-c2nc(C(C)(C)C)[nH]c2-c2ccnc(N)n2)cnc1N [Compound 201, 4-(4-(6-amino-5-methoxypyridin-3-yl)-2-tert-butyl-1H-imidazol-5-yl)pyrimidin-2-amine] | 0.0005 µM
7 | COCC(=O)NCCNc1nccc(-c2nc(-c3ccc(F)cc3)[nH]c2-c2cc(C)c3ncnn3c2)n1 [Compound 202, N-(2-(4-(2-(4-fluorophenyl)-5-(8-methyl-[1,2,4]triazolo[1,5-a]pyridin-6-yl)-1H-imidazol-4-yl)pyrimidin-2-ylamino)ethyl)-2-methoxyacetamide] | 0.025 µM
8 | COc1cc(-c2nc(C(C)(C)C)[nH]c2-c2ccnc(N[C@@H]3CCN(S(C)(=O)=O)C3)n2)cnc1N [Compound 203, (R)-4-(4-(6-amino-5-methoxypyridin-3-yl)-2-tert-butyl-1H-imidazol-5-yl)-N-(1-(methylsulfonyl)pyrrolidin-3-yl)pyrimidin-2-amine] | 0.0035 µM
9 | COCC(=O)NC[C@H](C)Nc1nccc(-c2nc(C(C)(C)C)[nH]c2-c2cnc(N)c(OC)c2)n1 [Compound 204, (S)-N-(2-(4-(5-(6-amino-5-methoxypyridin-3-yl)-2-tert-butyl-1H-imidazol-4-yl)pyrimidin-2-ylamino)propyl)-2-methoxyacetamide] | 0.0008 µM
10 | COCC(=O)N[C@@H](C)CNc1nccc(-c2[nH]c(C(C)(C)C)nc2-c2cnc(N)c(OC)c2)n1 [Compound 205, (S)-N-(1-(4-(4-(6-amino-5-methoxypyridin-3-yl)-2-tert-butyl-1H-imidazol-5-yl)pyrimidin-2-ylamino)propan-2-yl)-2-methoxyacetamide] | 0.0004 µM
11 | COc1cc(-c2nc(C(C)(C)C)[nH]c2-c2ccnc(NC[C@H](C)NC(=O)C(F)(F)F)n2)cnc1N [Compound 206, (S)-N-(1-(4-(4-(6-amino-5-methoxypyridin-3-yl)-2-tert-butyl-1H-imidazol-5-yl)pyrimidin-2-ylamino)propan-2-yl)-2,2,2-trifluoroacetamide] | 0.0003 µM
12 | COc1cc(-c2[nH]c(C(C)(C)C)nc2-c2ccnc(N[C@@H](C)CNC(=O)[C@H](C)OC)n2)cnc1N [Compound 207, (S)-N-((S)-2-(4-(5-(6-amino-5-methoxypyridin-3-yl)-2-tert-butyl-1H-imidazol-4-yl)pyrimidin-2-ylamino)propyl)-2-methoxypropanamide] | 0.0158 µM
13 | COc1cc(-c2[nH]c(C(C)(C)C)nc2-c2ccnc(N[C@@H](C)CNC(=O)[C@@H](C)OC)n2)cnc1N [Compound 208, (R)-N-((S)-2-(4-(5-(6-amino-5-methoxypyridin-3-yl)-2-tert-butyl-1H-imidazol-4-yl)pyrimidin-2-ylamino)propyl)-2-methoxypropanamide] | 0.0014 µM
14 | COc1cc(-c2nc(C(C)(C)C)[nH]c2-c2ccnc(NCC(C)C)n2)cnc1N [Compound 209, 4-(4-(6-amino-5-methoxypyridin-3-yl)-2-tert-butyl-1H-imidazol-5-yl)-N-isobutylpyrimidin-2-amine] | 0.0001 µM
15 | CNc1nccc(-c2[nH]c(C(C)(C)C)nc2-c2cnc(N)c(OC)c2)n1 [Compound 210, 4-(4-(6-amino-5-methoxypyridin-3-yl)-2-tert-butyl-1H-imidazol-5-yl)-N-methylpyrimidin-2-amine] | 0.0001 µM
16 | CCNc1nccc(-c2[nH]c(C(C)(C)C)nc2-c2cnc(N)c(OC)c2)n1 [Compound 211, 4-(4-(6-amino-5-methoxypyridin-3-yl)-2-tert-butyl-1H-imidazol-5-yl)-N-ethylpyrimidin-2-amine] | 0.0001 µM
17 | CCCNc1nccc(-c2[nH]c(C(C)(C)C)nc2-c2cnc(N)c(OC)c2)n1 [Compound 212, 4-(4-(6-amino-5-methoxypyridin-3-yl)-2-tert-butyl-1H-imidazol-5-yl)-N-propylpyrimidin-2-amine] | 0.0001 µM
18 | COc1cc(-c2nc(C(C)(C)C)[nH]c2-c2ccnc(NCC(F)(F)F)n2)cnc1N [Compound 213, 4-(4-(6-amino-5-methoxypyridin-3-yl)-2-tert-butyl-1H-imidazol-5-yl)-N-(2,2,2-trifluoroethyl)pyrimidin-2-amine] | 0.0001 µM
19 | COCC(=O)N[C@@H](C)CNc1nccc(-c2oc(-c3ccc(F)cc3)nc2-c2cnc(N)c(OC)c2)n1 [Compound 214, (S)-N-(1-(4-(4-(6-amino-5-methoxypyridin-3-yl)-2-(4-fluorophenyl)oxazol-5-yl)pyrimidin-2-ylamino)propan-2-yl)-2-methoxyacetamide] | 0.001 µM
20 | COc1cc(-c2nc(C(C)(C)C)[nH]c2-c2ccnc(NCc3ccc(C(F)(F)F)cc3)n2)cnc1N [Compound 215, 4-(4-(6-amino-5-methoxypyridin-3-yl)-2-tert-butyl-1H-imidazol-5-yl)-N-(4-(trifluoromethyl)benzyl)-pyrimidin-2-amine] | 0.0005 µM
21 | COCC(=O)N[C@@H](C)CNc1nccc(-c2[nH]c(-c3ccc(C(F)(F)F)cc3F)nc2-c2cnc(N)c(OC)c2)n1 [Compound 216, (S)-N-(1-(4-(6-(6-amino-5-methoxypyridin-3-yl)-2-(2-fluoro-4-(trifluoromethyl)phenyl)-1H-imidazol-5-yl)pyrimidin-2-ylamino)propan-2-yl)-2-methoxyacetamide] | 0.0002 µM
22 | COCC(=O)N[C@@H](C)CNc1nccc(-c2oc(-c3ccc(F)cc3)nc2-c2cnc(N)c(OC)n2)n1 [Compound 217, (S)-N-(1-(4-(4-(5-amino-6-methoxypyrazin-2-yl)-2-(4-fluorophenyl)oxazol-5-yl)pyrimidin-2-ylamino)propan-2-yl)-2-methoxyacetamide] | 0.002 µM
23 | COc1cc(-c2nc(C(C)(C)C)[nH]c2-c2ccnc(NC[C@H](C)NC(C)=O)n2)cnc1N [Compound 218, (S)-N-(1-(4-(4-(6-amino-5-methoxypyridin-3-yl)-2-tert-butyl-1H-imidazol-5-yl)pyrimidin-2-ylamino)propan-2-yl)acetamide] | 0.0003 µM
24 | CNC(=O)N[C@@H](C)CNc1nccc(-c2[nH]c(C(C)(C)C)nc2-c2cnc(N)c(OC)c2)n1 [Compound 219, (S)-1-(1-(4-(4-(6-amino-5-methoxypyridin-3-yl)-2-tert-butyl-1H-imidazol-5-yl)pyrimidin-2-ylamino)propan-2-yl)-3-methylurea] | 0.0003 µM
25 | COc1cc(-c2nc(-c3ccc(F)cc3)oc2-c2ccnc(NCC(C)C)n2)cnc1N [Compound 220, 4-(4-(6-amino-5-methoxypyridin-3-yl)-2-(4-fluorophenyl)oxazol-5-yl)-N-isobutylpyrimidin-2-amine] | 0.002 µM
26 | COc1cc(-c2nc(C(C)(C)C)[nH]c2-c2ccnc(Nc3ccc(C(F)(F)F)cc3)n2)cnc1N [Compound 221, 4-(4-(6-amino-5-methoxypyridin-3-yl)-2-tert-butyl-1H-imidazol-5-yl)-N-(4-(trifluoromethyl)phenyl)-pyrimidin-2-amine] | 0.0002 µM
27 | COc1cc(-c2nc(C(C)(C)C)[nH]c2-c2ccnc(Nc3ccc(Cl)c(C(F)(F)F)c3)n2)cnc1N [Compound 222, 4-(4-(6-amino-5-methoxypyridin-3-yl)-2-tert-butyl-1H-imidazol-5-yl)-N-(4-chloro-3-(trifluoromethyl)phenyl) pyrimidin-2-amine] | 0.0002 µM
28 | COc1nc(-c2nc(-c3ccc(C(F)(F)F)cc3)oc2-c2ccnc(NCC(C)C)n2)cnc1N [Compound 223, 4-(4-(5-amino-6-methoxypyrazin-2-yl)-2-(4-(trifluoromethyl)phenyl)oxazol-5-yl)-N-isobutylpyrimidin-2-amine] | 0.011 µM
29 | COc1cc(-c2nc(-c3ccc(C(F)(F)F)cc3)oc2-c2ccnc(NCC(C)C)n2)cnc1N [Compound 224, 4-(4-(6-amino-5-methoxypyridin-3-yl)-2-(4-(trifluoromethyl)phenyl)oxazol-5-yl)-N-isobutylpyrimidin-2-amine] | 0.014 µM
30 | COc1cc(-c2nc(C(C)(C)C)[nH]c2-c2ccnc(NC[C@H](C)NC(=O)[C@@H](C)OC)n2)cnc1N [Compound 225, (R)-N-((S)-1-(4-(4-(6-amino-5-methoxypyridin-3-yl)-2-tert-butyl-1H-imidazol-5-yl)pyrimidin-2-ylamino)propan-2-yl)-2-methoxypropanamide] | 0.0013 µM
